Measured values published in patent US20040147545A1, “Derivatives of oxazolidinones as antibacterial agents” (priority 2001, published 2004).
In brackets after ≈: the same amount, converted by molar mass.

What was measured:
Type in all cases: cell-based
[1] = system: S. aureus resistant to meticillin; assay: Antibacterial activity, microdilution in culture broth (NCCLS), strain A; conditions: Staphylococcus aureus, G (+) hospital strain, inoculum 5×10^5 UFC/ml
From the text: (§1) The antibacterial activity of the new synthesised compounds on the various strains of the bacterial species was implemented using the technique of microdilution in culture broth according to the regulations of the National Committee for Clinical Laboratory Standards (NCCLS), (NCCLS. 1993. Methods for dilution antimicrobial susceptibility tests for bacteria that grow aerobically. Approved standard M7-A3. NCCLS, Vilanova. Pa., and NCCLS. 1993. Methods for dilution antimicrobial susceptibility tests for anaerobic bacteria […]. Approved standard M1-A3. NCCLS, Vilanova. Pa.).
(§2) The inoculum used was 5×10^5 UFC/ml following dilution of the cultures overnight in the exponential phase of bacterial growth.
(§3) The MIC expressed in mg/l was defined as the minimum concentration of antibiotic which inhibited any visible growth.
(§4) Linezolid was included as comparative compound.
(§5) The compounds were tested on the strains of G(+) and G(−) bacteria set out in Table 1, in which: […]

[2] = system: E. faecalis resistant to vancomycin; assay: Antibacterial activity, microdilution in culture broth (NCCLS), strain B; conditions: Enterococcus faecalis, G (+) hospital strain, inoculum 5×10^5 UFC/ml
From the text: as §1, §2, §3, §4, §5

[3] = system: S. pneumoniae resistant to penicillin; assay: Antibacterial activity, microdilution in culture broth (NCCLS), strain C; conditions: Streptococcus pneumoniae, G (+) hospital strain, inoculum 5×10^5 UFC/ml
From the text: as §1, §2, §3, §4, §5

[4] = system: S. agalactiae; assay: Antibacterial activity, microdilution in culture broth (NCCLS), strain D; conditions: Streptococcus agalactiae, G (+) hospital strain, inoculum 5×10^5 UFC/ml
From the text: as §1, §2, §3, §4, §5

[5] = system: S. epidermidis; assay: Antibacterial activity, microdilution in culture broth (NCCLS), strain E; conditions: Staphylococcus epidermidis, G (+) hospital strain, inoculum 5×10^5 UFC/ml
From the text: as §1, §2, §3, §4, §5

[6] = system: S. pyogenes; assay: Antibacterial activity, microdilution in culture broth (NCCLS), strain F; conditions: Streptococcus pyogenes, G (+) hospital strain, inoculum 5×10^5 UFC/ml
From the text: as §1, §2, §3, §5

[7] = system: B. fragilis; assay: Antibacterial activity, microdilution in culture broth (NCCLS), strain G (anaerobic); conditions: Bacteroides fragilis, anaerobic hospital strain, inoculum 5×10^5 UFC/ml
From the text: as §1, §2, §3, §4, §5

[8] = system: E. coli; assay: Antibacterial activity, microdilution in culture broth (NCCLS), strain H; conditions: Escherichia coli, G (−) hospital strain, inoculum 5×10^5 UFC/ml
From the text: as §1, §2, §3, §4, §5

[9] = system: H. influenzae; assay: Antibacterial activity, microdilution in culture broth (NCCLS), strain I; conditions: Haemophilus influenzae, G (−) hospital strain, inoculum 5×10^5 UFC/ml
From the text: as §1, §2, §3, §4, §5

[10] = system: M. Catarrahalis; assay: Antibacterial activity, microdilution in culture broth (NCCLS), strain J; conditions: G (−) hospital strain, inoculum 5×10^5 UFC/ml
From the text: as §1, §2, §3, §4, §5

Compound: CC(=O)NC[C@H]1CN(c2ccc(N3CCN(c4nc5c(cc4F)c(=O)c(C(=O)O)cn5-c4ccc(F)cc4F)CC3)c(F)c2)C(=O)O1 [EXAMP. 20, 7-(4-{4-[5-(S)-(acetylamino-methyl)-2-oxo-oxazolidin-3-yl]-2-fluoro-phenyl}-piperazin-1-yl)-1-(2,4-difluoro-phenyl)-6-fluoro-4-oxo-1,4-dihydro-[1,8]Naphthyridine-3-carboxylic Acid]
- MIC [1]: 1 µg/mL (≈ 1.53 µM)
- MIC [2]: 2 µg/mL (≈ 3.06 µM)
- MIC [3]: 1 µg/mL (≈ 1.53 µM)
- MIC [4]: 1 µg/mL (≈ 1.53 µM)
- MIC [5]: 0.5 µg/mL (≈ 0.764 µM)
- MIC [6]: 1 µg/mL (≈ 1.53 µM)
- MIC [7]: > 64 µg/mL
- MIC [8]: > 64 µg/mL
- MIC [9]: 2 µg/mL (≈ 3.06 µM)
- MIC [10]: 4 µg/mL (≈ 6.11 µM)

Compound: CC(=O)NC[C@H]1CN(c2ccc(N3CCN(c4nc5c(cc4F)c(=O)c(C(=O)O)cn5C4CC4)CC3)c(F)c2)C(=O)O1 [EXAMP. 21, 7-(4-{4-[5-(S)-(acetylamino-methyl)-2-oxo-oxazolidin-3-yl]-2-fluoro-phenyl}-piperazin-1-yl)-1-cyclopropyl-6-fluoro-4-oxo-1,4-dihydro-[1,8]Naphthyridine-3-carboxylic Acid]
- MIC [1]: 0.25 µg/mL (≈ 0.429 µM)
- MIC [2]: < 0.125 µg/mL
- MIC [3]: < 0.125 µg/mL
- MIC [4]: < 0.125 µg/mL
- MIC [5]: < 0.125 µg/mL
- MIC [6]: < 0.125 µg/mL
- MIC [7]: 0.25 µg/mL (≈ 0.429 µM)
- MIC [8]: 64 µg/mL (≈ 110 µM)
- MIC [9]: 2 µg/mL (≈ 3.43 µM)
- MIC [10]: 0.5 µg/mL (≈ 0.858 µM)

Compound: CC(=O)NC[C@H]1CN(c2ccc(N3CCN(c4c(F)cc5c(=O)c(C(=O)O)cn(CCF)c5c4F)CC3)c(F)c2)C(=O)O1 [EXAMP. 22, 7-(4-{4-[5-(S)-(acetylamino-methyl)-2-oxo-oxazolidin-3-yl]-2-fluoro-phenyl}-piperazin-1-yl)-6,8-difluoro-1-(2-fluoro-ethyl)-4-oxo-1,4-dihydro-quinoline-3-carboxylic Acid]
- MIC [1]: < 0.125 µg/mL
- MIC [2]: < 0.125 µg/mL
- MIC [3]: 0.25 µg/mL (≈ 0.413 µM)
- MIC [4]: < 0.125 µg/mL
- MIC [5]: < 0.125 µg/mL
- MIC [6]: < 0.125 µg/mL
- MIC [7]: 0.5 µg/mL (≈ 0.826 µM)
- MIC [8]: 64 µg/mL (≈ 106 µM)
- MIC [9]: 2 µg/mL (≈ 3.3 µM)
- MIC [10]: 0.5 µg/mL (≈ 0.826 µM)
